Laboratory results from article PMC5048153 (Scientific Reports, 2016).
Structures can show the parent of a compound that is named as a salt.

Tests used:
[1] = tested on: corticosterone-injured PC12 cells; test: Protective effects on corticosterone-injured PC12 cells (MTT); type: cell-based, rat; set-up: key to PR (protection rate), Table S1: compounds did not shown protection effects on corticosterone-injured PC12 cells; conditions: 24 h after treatment; for PR (protection rate), Table S1: 1.25µM; for PR (protection rate): 200 μM corticosterone
Experimental: PC12 cells were purchased from American Type Culture Collection and were maintained in DMEM medium supplemented with penicillin (100 unit/ml), streptomycin (100 μg/ml), 5% fetal bovine serum (FBS), and 10% horse serum at 37 °C in humidified atmosphere with 5% CO2. The detailed procedures were performed referring to the reported literatures. Briefly, PC12 cells of logarithmic growth phase were collected, re-suspended and then seeded at a density of 1 × 10^5 cells per well in 96-well plates and cultured in the DMEM medium with 5% horse serum, 10% FBSfor 24 h.
After incubation with compounds, 20 μl of 5 mg/ml MTT solution was added to each well and cultured at 37 °C for 2 h–4 h. Then, the culture medium was removed, and 150 μl dimethyl sulfoxide(DMSO) was added to each well for 15 min at room temperature. The absorbance of each well was measured at 570 nm using a microplate reader. The protective rates (PR) were calculated according to equation (1).

L02 cells = test: Cytotoxicity on L02 cells (MTT); type: cell-based, human; conditions: after treatment; for IR (inhibitory rate) L02: 100μM; for inhibition at 100 µM: Homo sapiens, L02, 100μM, read-out: IR (inhibitory rate) L02
Experimental: (§1) Human normal hepatic L02 cells, human embryonic kidney cell line 293 cells (HEK293) and Rattus myoblast cell line H9C2 cells were respectively seeded in 96-well plates at a density of 4 × 10^3 cells per well and cultured in the 1640 or DMEM medium, with the supplement of 10% fetal bovine serum, penicillin (100 unit/ml), streptomycin (100 μg/ml) in a humidified incubator with 5% CO2 for 24 h. […] The cytotoxicities of the compounds were evaluated by MTT method.

HEK293 cells = test: Cytotoxicity on HEK293 cells (MTT); type: cell-based, human; conditions: after treatment; for IR (inhibitory rate) HEK293: 100μM; for inhibition at 100 µM: Homo sapiens, HEK293, 100μM, read-out: IR (inhibitory rate) HEK293
Experimental: as §1

| Compound | PR (protection rate), Table S1 [1] | IR (inhibitory rate) L02 (L02 cells) [%] | IR (inhibitory rate) HEK293 (HEK293 cells) [%] | PR (protection rate) ([1]; 5 μM) [%] | PR (protection rate) ([1]; […]) [%] | inhibition at 100 µM (L02 cells) [%] | inhibition at 100 µM (HEK293 cells) [%] | PR (protection rate) ([1]; 1.25 μM) |
| --- | --- | --- | --- | --- | --- | --- | --- | --- |
| 1-(3,5-Dimethylpyridin-4-yl)-3-(2-(7-methoxy-3,4-dihydroisoquinolin-1-yl)ethyl)urea oxalate [6b-11] | - | 27.3 | 28.1 |  |  |  |  |  |
| 2,6-Difluoro-N-(2-(7-methoxy-3,4-dihydroisoquinolin-1-yl)ethyl)benzamide oxalate [6a-34] | - | 44.0 | 47.1 |  |  |  |  |  |
| 2-(3-(2-(7-Methoxy-3,4-dihydroisoquinolin-1-yl)ethyl)ureido)thiazole-5-carboxylate oxalate [6b-8] | - | 50.0 | 49.2 |  |  |  |  |  |
| 2-((2-(7-Methoxy-3,4-dihydroisoquinolin-1-yl)ethyl)carbamoyl)phenylacetate oxalate [6a-20] | - | 54.9 | 57.1 |  |  |  |  |  |
| 4-Fluoro-N-(2-(7-methoxy-3,4-dihydroisoquinolin-1-yl)ethyl)benzamide oxalate [6a-33] | - | 45.2 | 43.0 |  |  |  |  |  |
| CCC(=O)NCCC1=NCCc2ccc(OC)cc21.O=C(O)C(=O)O [6a-2, N-(2-(7-Methoxy-3,4-dihydroisoquinolin-1-yl)ethyl) propionamide oxalate] |  |  |  | 3.1 | 18.1 | 12.4 | 23.4 |  |
| COc1ccc2c(c1)C(CCNC(=O)C(F)(F)F)=NCC2 [6a-3, 2,2,2-Trifluoro-N-(2-(7-methoxy-3,4-dihydroisoquinolin-1-yl)ethyl) acetamideoxalate] | -^b |  |  |  |  | 59.6 | 60.1 |  |
| COc1ccc2c(c1)C(CCNC(=O)C1CC1)=NCC2 [6a-4, N-(2-(7-Methoxy-3,4-dihydroisoquinolin-1-yl)ethyl) cyclopropanecarboxamideoxalate] | - |  |  |  |  | < 0 | 46.2 |  |
| COc1ccc2c(c1)C(CCNC(=O)c1ccc(Cl)cc1)=NCC2 [6a-5, 4-Chloro-N-(2-(7-methoxy-3,4-dihydroisoquinolin-1-yl)ethyl) benzamideoxalate] | 4.1% |  |  |  |  | 67 | 60 |  |
| COc1ccc(C(=O)NCCC2=NCCc3ccc(OC)cc32)cc1 [6a-6, 4-Methoxy-N-(2-(7-methoxy-3,4-dihydroisoquinolin-1-yl)ethyl) benzamideoxalate] | - |  |  |  |  | 24.9 | 34.1 |  |
| COc1ccc2c(c1)C(CCNC(=O)c1ccccc1Cl)=NCC2 [6a-7, 2-Chloro-N-(2-(7-methoxy-3,4-dihydroisoquinolin-1-yl)ethyl) benzamide oxalate] | - |  |  |  |  | 23.5 | 27.4 |  |
| COc1ccc2c(c1)C(CCNC(=O)c1ccc(C(F)(F)F)cc1)=NCC2 [6a-8, N-(2-(7-Methoxy-3,4-dihydroisoquinolin-1-yl)ethyl) -4-(trifluoromethyl) benzamideoxalate] | - |  |  |  |  | 60.6 | 38.4 |  |
| COc1ccc2c(c1)C(CCNC(=O)c1ccco1)=NCC2 [6a-9, N-(2-(7-Methoxy-3,4-dihydroisoquinolin-1-yl)ethyl) furan-2-carboxamideoxalate] |  |  |  | 7.9 | 14.9 | 52.6 | 60.1 |  |
| COc1ccc2c(c1)C(CCNC(=O)c1ccccc1)=NCC2.O=C(O)C(=O)O [6a-10, N-(2-(7-Methoxy-3,4-dihydroisoquinolin-1-yl)ethyl)benzamide oxalate] | - |  |  |  |  | 22.5 | 27.6 |  |
| COc1ccc2c(c1)C(CCNC(=O)c1ccc(F)cc1)=NCC2 [6a-12, 4-Fluoro-N-(2-(7-methoxy-3,4-dihydroisoquinolin-1-yl)ethyl) benzamide oxalate] | 0.7% |  |  |  |  | 19.1 | 43.8 |  |
| COc1ccc2c(c1)C(CCNC(=O)c1ccc(C(C)C)cc1)=NCC2 [6a-13, 4-Isopropyl-N-(2-(7-methoxy-3,4-dihydroisoquinolin-1-yl)ethyl) benzamide oxalate] | - |  |  |  |  | 43 | 57.6 |  |
| COc1ccc(C(=O)NCCC2=NCCc3ccc(OC)cc32)c(OC)c1 [6a-15, 2,4-Dimethoxy-N-(2-(7-methoxy-3,4-dihydroisoquinolin-1-yl)ethyl) benzamide oxalate] | 3.7% |  |  |  |  | 49.5 | 56.1 |  |
| COc1ccc2c(c1)C(CCNC(=O)c1ccc(C(C)=O)cc1)=NCC2 [6a-16, 4-Acetyl-N-(2-(7-methoxy-3,4-dihydroisoquinolin-1-yl)ethyl) benzamideoxalate] | 6.1% |  |  |  |  | < 20 | < 20 |  |
| COc1ccc2c(c1)C(CCNC(=O)Cc1cc3ccccc3[nH]1)=NCC2.O=C(O)C(=O)O [6a-17, 2-(1H-Indol-2-yl)-N-(2-(7-methoxy-3,4-dihydroisoquinolin-1-yl)ethyl)acetamide oxalate] | - |  |  |  |  | 42.2 | 55.8 |  |
| COc1ccc2c(c1)C(CCNC(=O)c1ccc(C(C)(C)C)cc1)=NCC2.O=C(O)C(=O)O [6a-18, 4-(tert-Butyl)-N-(2-(7-methoxy-3,4-dihydroisoquinolin-1-yl)ethyl)benzamide oxalate] | - |  |  |  |  | 63.2 | 53.3 |  |
| COc1ccc2c(c1)C(CCNC(=O)c1ccc(C#N)cc1)=NCC2.O=C(O)C(=O)O [6a-19, 4-Cyano-N-(2-(7-methoxy-3,4-dihydroisoquinolin-1-yl)ethyl)benzamide oxalate] | - |  |  |  |  | 45 | 55.9 |  |
| COc1ccc2c(c1)C(CCNC(=O)c1cccnc1Cl)=NCC2.O=C(O)C(=O)O [6a-21, 2-Chloro-N-(2-(7-methoxy-3,4-dihydroisoquinolin-1-yl)ethyl)nicotinamide oxalate] | 15.2% |  |  |  |  | 58.8 | 49.8 | above 10% |
| COc1ccc2c(c1)C(CCNC(=O)c1cccc(C)c1)=NCC2.O=C(O)C(=O)O [6a-22, N-(2-(7-Methoxy-3,4-dihydroisoquinolin-1-yl)ethyl)-3-methylbenzamide oxalate] | - |  |  |  |  | 31.8 | 22.2 |  |
| COc1ccc2c(c1)C(CCNC(=O)c1cccnc1)=NCC2.O=C(O)C(=O)O [6a-23, N-(2-(7-Methoxy-3,4-dihydroisoquinolin-1-yl)ethyl)nicotinamide oxalate] | - |  |  |  |  | 66.9 | 57.8 |  |
| COc1ccc2c(c1)C(CCNC(=O)c1ccccn1)=NCC2.O=C(O)C(=O)O [6a-24, N-(2-(7-Methoxy-3,4-dihydroisoquinolin-1-yl)ethyl)picolinamide oxalate] | - |  |  |  |  | 55.8 | 62.9 |  |
| COc1ccc2c(c1)C(CCNC(=O)c1ccc(C)cc1)=NCC2.O=C(O)C(=O)O [6a-25, N-(2-(7-Methoxy-3,4-dihydroisoquinolin-1-yl)ethyl)-4-methylbenzamide oxalate] | - |  |  |  |  | 50.8 | 65.7 |  |
| COc1ccc2c(c1)C(CCNC(=O)c1ccc3ccccc3n1)=NCC2.O=C(O)C(=O)O [6a-26, N-(2-(7-Methoxy-3,4-dihydroisoquinolin-1-yl)ethyl)quinoline-2-carboxamide oxalate] | - |  |  |  |  | 42.7 | 48.6 |  |
| COc1ccc2c(c1)C(CCNC(=O)Nc1ccc(Cl)c(C(F)(F)F)c1)=NCC2 [6b-9, 1-(4-Chloro-3-(trifluoromethyl)phenyl)-3-(2-(7-methoxy-3,4-dihydroisoquinolin-1-yl)ethyl)urea oxalate] |  |  |  |  |  | 25.7 | 31.6 |  |
| COc1ccc2c(c1)C(CCNC(=O)NC(C)C)=NCC2 [6b-10, 1-Isopropyl-3-(2-(7-methoxy-3,4-dihydroisoquinolin-1-yl)ethyl)urea oxalate] |  |  |  |  |  | 31.9 | 34.7 |  |
| COc1ccc2c(c1)C(CCNC(=O)Nc1ccc(Cl)cc1[N+](=O)[O-])=NCC2 [6b-16, 1-(4-Chloro-2-nitrophenyl)-3-(2-(7-methoxy-3,4-dihydroisoquinolin-1-yl)ethyl)urea oxalate] |  |  |  |  |  | 53.2 | 52 |  |
